Experimental data reported in ChEMBL document CHEMBL1124716, “Structure and activity of hydrogenated derivatives of (+)-5-methyl-10,11-dihydro-5H-dibenzo[a,d]cyclohepten-5,10-imine (MK-801)” (J Med Chem, 1990).

Assays:
[1] = Ability to inhibit [3H]-MK-801 binding to N-methyl-D-aspartate glutamate receptor of rat cortical membranes
[2] = N-methyl-D-aspartate glutamate receptor antagonist activity was determined in rat cortical slice preparation; assay type: functional

SMILES | IC50 [1] | Kb [2]
CC12N[C@H](Cc3ccccc31)C1=CCCCC12 (stereo not given in full) | 0.06 µM | 0.3 µM
CC12N[C@H](CC3=C1CCCC3)C1CCCCC12 (stereo not given in full) | 0.08 µM | 0.28 µM
CC12N[C@H](CC3CCCCC31)c1ccccc12 (stereo not given in full) | 0.188 µM | 0.13 µM
COc1ccc2c(c1)C1(C)N[C@@H]2CC2CCCCC21 (stereo not given in full) | 0.24 µM | 0.31 µM
CC12N[C@H](CC3CCCCC31)C1CCCCC12 (stereo not given in full) | 0.035 µM | 0.8 µM
CC12NC(Cc3ccccc31)c1ccccc12 (single isomer, unassigned) | 0.0305 µM | 0.13 µM
OCCC12N[C@](O)(Cc3ccccc31)C1CCCCC12 (stereo not given in full) | 0.396 µM | 0.77 µM
CC12N[C@H](Cc3ccccc31)C1=C2CC=CC1 | 0.02 µM | 
CN1C2(C)c3ccccc3C1(C)C1CCCCC12 (stereo not given) | 0.111 µM | 
CC12N[C@H](CC3=C1CCCC3)c1ccccc12 | 0.193 µM | 0.27 µM
CC12N[C@@H](C3CCCCC31)[C@H](O)c1ccccc12 (stereo not given in full) | 0.069 µM | 0.25 µM
CC12NC(Cc3ccccc31)CC1CCCCC12 (stereo not given) | 0.164 µM | 0.25 µM
OCCC12N[C@H](Cc3ccccc31)C1CCCCC12 (stereo not given in full) | 0.22 µM | 0.24 µM
CC12N[C@H](Cc3ccccc31)C1=CC=CCC12 (stereo not given in full) | 0.021 µM | 0.27 µM
CC12N[C@H](Cc3ccccc31)C1CCCCC12 (stereo not given in full) | 0.016 µM | 0.23 µM
CN1[C@@H]2Cc3ccccc3[C@@]1(C)C1CCCCC12 (stereo not given in full) | 0.096 µM | 0.29 µM
